The text below walks through data of US7618946B2, “Analgesic compounds, extracts containing same and methods of preparation” (Griffith University, priority 2003, dated 2009).

As a reminder, the ED50 is the dose that gives a 50% effect, or the effect in half of the subjects.

The test system of data set [1] is FCA-rats. Put plainly: side effects observed after i.v. bolus doses in FCA-rats. The format is in vivo, Sprague-Dawley rats. Also noted: key to Intensity: 0 = none; 1 = mild; 2 = moderate; 3 = severe; 4 = extreme. How it is done: Each of the compounds F70.3.2 and F70.3.6 were dissolved in sterile saline. The compounds of interest were administered initially in a dose of 0.01 mg/kg in an injection volume of 0.5 mL. The other i.v. doses administered in this preliminary study were as follows: […]

Data set [2] concerns FCA-rats. Put plainly: paw pressure test in rat model of inflammatory pain (FCA). The conditions noted are these: i.v. bolus; for dose-response of antinociceptive effect (AUC versus dose): ipsilateral hindpaw, FIG. 68. The data set is classed as in vivo, Sprague-Dawley rats. How it is done:
Adult male Sprague-Dawley rats were housed in a temperature controlled room (21±2° C.) with a 12 h/12 h light/dark cycle and free access to both food and water. Ethical approval for this study was obtained from the Animal Experimentation Ethics Committee of The University of Queensland.
Inflammation of the rat hindpaw was induced by intra-plantar (i.pl.) injection of Freund's Complete Adjuvant (FCA, 0.15 mL) whilst rats were under brief 3% isoflurane: 97% oxygen inhalational anaesthesia. Inflammatory pain was assessed using the paw pressure test (see below for details). The test compounds were administered on either day 5 or day 6 following i.pl. FCA administration.
Jugular vein cannulation was performed whilst rats were anaesthetised with 3% isoflurane: 97% O2 inhalational anaesthesia maintained using a calibrated Trilene vapouriser. Polyethylene cannulae (previously filled with heparinised saline) were implanted into the right common jugular vein for i.v. drug dosing. Cannulae were exteriorized by subcutaneous (s.c.) tunneling to an incision made in the interscapular area, and protected by a stainless steel spring, the base of which was positioned in a subcutaneous pocket between the scapulae. Incisions were closed with sterile silk sutures. After surgery, rats were housed singly in metabolic cages and were allowed to recover post-operatively for a minimum of 2 h before further experimentation. Food and water were available ad libitum during the recovery period.
Each of the compounds F70.3.2 and F70.3.6 were dissolved in sterile saline. The compounds of interest were administered initially in a dose of 0.01 mg/kg in an injection volume of 0.5 mL. The other i.v. doses administered in this preliminary study were as follows:
Control rats received bolus doses of i.v. saline. Antinociceptive Testing: Paw Pressure Test
For the paw pressure test, rats were gently restrained under a towel, and incremental mechanical pressure (maximum=250 g) was applied to the dorsal surface of the hindpaw. The pressure required to elicit paw withdrawal, the paw pressure threshold (PPT), was determined. The mean of 3 consecutive measurements, separated by 10 s, was determined. The same procedure was then performed on the contralateral side with the sequence of sides being alternated to preclude order effects. Similarly, rats were gently restrained under a towel for the quantification of paw volumes using a plethysmometer.
Following administration of i.v. bolus doses of each of the test compounds (F70.3.2 and F70.3.6), paw withdrawal thresholds (g) were normalized by subtraction of the individual baseline PWT values quantified immediately prior to drug administration. The area under the normalized PWT versus time (AUC) was calculated using the trapezoidal rule. Dose-response curves were constructed by plotting the AUC values versus the i.v. dose for each of F70.3.2 and F70.3.6.

The next data set concerns Male Quackenbush mice. Put plainly: mouse formalin assay. The data set is classed as in vivo.
For data set [3] the following is noted: cited from earlier work; for inhibition of acetic acid induced writhing: 10 and 30 mg/kg (sc) [56]; for ED50: acetic acid writhing test [52]. A general note: An intraperitoneal irritant provokes the stretching counted in writhing tests.
Data set [4] deals with mice. As to conditions: mice [59]; cited from earlier work.
Data set [5] concerns mice. As to conditions: cited from earlier work; for analgesia in both phases of the formalin test: [61]; for response in both early and late phases: known analgesics [61]; for effect on late phase: anti-inflammatory compounds and steroids [61].
Data set [6] has as its system mice. As to conditions: mice [59]; cited from earlier work. This is another data set of the same source.
Setting [7] is: i.v. 0.005 mg/kg, Apnoea, Table 19.
[8] abbreviates: i.v. 0.02 mg/kg, Apnoea, Table 19.
The mark [9] stands for this setting: i.v. 0.02 mg/kg, Staring, Table 19.
The mark [10] stands for this setting: i.v. 0.005 mg/kg, Body shaking, Table 20.
The mark [11] stands for this setting: i.v. 0.01 mg/kg, Body shaking, Table 20.
Where [12] appears, read: i.v. 0.02 mg/kg, Staring, Table 20.
Setting [13] is: i.v. 0.05 mg/kg, Apnoea, Table 20.
Setting [14] is: i.v. 0.05 mg/kg, Staring, Table 20.

“Also recorded” adds a separate entry of the source.

Experimental for Male Quackenbush mice: The formalin assay involves the subcutaneous injection of a small amount of formalin into the fore or hind paw of a rat or mouse and the behavioural response to this injection is recorded as a measure of pain response.
The formalin assay was preformed on male mice using morphine, and other compounds of interest, as an analgesic, to test the viability and reliability of the assay as a means of measuring pain response in mice.
Male Quackenbush mice weighing 25-35 g were used. They were housed in colony cages (400×300×130 mm; Wiretainers) with ad libitum access to food (standard rat/mouse pellets; Norco Feeds) and water. For short term storage a maximum of 15-16 mice were housed per cage while for longer periods this number was reduced to less than 10 mice per cage. Bedding material was wood shavings or more commonly recycled paper pellets (Breeders Choice).
Formalin (Ajax) was supplied as solution of approximately 37.5% formaldehyde containing 10% methanol as a preservative. […]
Morphine and other compounds of interest were injected in a volume of 10 mL/kg intraperitoneally (ip) 30 minutes prior to formalin administration. […] The sole behavioural response recorded was the amount of time the animal spent biting or licking the injected paw or leg per 5 minute block was recorded. […]
Using this value a percentage pain inhibition can be calculated using the formula:—

Take `CC(=O)OCC12C(O)CC3(C)C(=CCC4C5(C)CCC(OC6OC(C(=O)O)C(O)C(OC7OCC(O)C(O)C7O)C6OC6OC(CO)C(O)C(O)C6O)C(C)(C)C5CCC43C)C1CC(C)(C)C(OC(=O)c1ccccc1)C2O` [Compound F70.3.2, 3-O-β-D-xylopyranosyl(1→3)-[β-D-galactopyranosyl(1→2)]-β-D-glucuronopyranosyl-21-O-benzoyl-28-O-acetyl barringtogenol C]: in the data set with FCA-rats [1] (setting [7]), the Duration was determined as 0.5 min, the Intensity came out at 1, the “No of rats observed with side-effect” value is given as 1/3 and the Onset was 180 min. The Side effect result in the data set with FCA-rats [1] (i.v. 0.005 mg/kg, Table 19) was “Apnoea”. For the same compound, in the data set with FCA-rats [1] (setting [8]), the Duration was determined as 15 min, the Intensity is listed as 1, the “No of rats observed with side-effect” value is reported as 1/3 and the Onset was 30 min. Further, in the data set with FCA-rats [1] (setting [9]), the Duration was 15 min, the Intensity is on record as 1, the “No of rats observed with side-effect” value is recorded as 1/3 and the Onset came out at 30 min. The Side effect entry in the data set on FCA-rats [1] (i.v. 0.02 mg/kg, Table 19, 0.02 mg/kg) is “Apnoea; also recorded: Staring”. Moreover, in the data set on FCA-rats [2], the “antinociception, contralateral (non-inflamed) hindpaw” value is “absence of antinociception”; the “dose-response of antinociceptive effect (AUC versus dose)” value was “distinct increase and then plateau”. In the data set on FCA-rats [2] (FIG. 65), the “antinociception, ipsilateral (inflamed) hindpaw (paw withdrawal threshold)” value is given as “dose-related increase in the antinociceptive potency”.

On to `CC(=O)OC1C(OC2OCC(OC(=O)c3ccccc3)C(OC(=O)C(C)C(C)OC(=O)c3ccccc3)C2O)C(C)(C)CC2C3=CCC4C5(C)CCC(OC6OC(C(=O)O)C(O)C(OC7OCC(O)C(O)C7O)C6OC6OC(CO)C(O)C(O)C6O)C(C)(C)C5CCC4(C)C3(C)CC(O)C21CO` [Compound F70.3.6, 3-O-β-D-xylopyranosyl(1→3)-[β-D-galactopyranosyl(1→2)]-β-D-glucuronopyranosyl-21-O-[3-(3-benzoyl-2-methylbutanoyl)-4-benzoyl-α-L-arabinopyranosyl]-22-O-acetyl barringtogenol C], for which the Duration is recorded as 5 min in the data set on FCA-rats [1] (setting [10]); 5 min with FCA-rats [1] (setting [11]); 15 min in the data set with FCA-rats [1] (setting [12]); 30 min in the data set with FCA-rats [1] (setting [13]); 15 min in the data set with FCA-rats [1] (setting [14]). Besides, the Intensity in the data set with FCA-rats [1] (setting [10]), with FCA-rats [1] (setting [11]), in the data set with FCA-rats [1] (setting [12]), with FCA-rats [1] (setting [13]) and in the data set with FCA-rats [1] (setting [14]) was 1 each time. The “No of rats observed with side-effect” value with FCA-rats [1] (setting [10]) is 1/3; in the data set on FCA-rats [1] (setting [11]), 1/3; in the data set with FCA-rats [1] (setting [12]), 1/3; with FCA-rats [1] (setting [13]), 1/1; in the data set with FCA-rats [1] (setting [14]) it was 1/1. Further, the Onset was 15 min with FCA-rats [1] (setting [10]); 30 min in the data set with FCA-rats [1] (setting [11]); 45 min in the data set with FCA-rats [1] (setting [12]); 5 min with FCA-rats [1] (setting [13]); 30 min in the data set on FCA-rats [1] (setting [14]). The Side effect result in the data set with FCA-rats [1] (i.v. 0.005 mg/kg, Table 20) is reported as “Body”; in the data set on FCA-rats [1] (i.v. 0.01 mg/kg, Table 20) it was “Body”; in the data set with FCA-rats [1] (i.v. 0.02 mg/kg, Table 20), “Staring”; with FCA-rats [1] (i.v. 0.05 mg/kg, Table 20, 0.05 mg/kg, onset 5 min, lasting 30 min), “Apnoea”; in the data set with FCA-rats [1] (i.v. 0.05 mg/kg, Table 20, 0.05 mg/kg, onset 30 min, lasting 15 min) it was “Staring”. The “antinociception, contralateral (non-inflamed) hindpaw” value in the data set on FCA-rats [2] is “absence of antinociception”. The “antinociception, ipsilateral hindpaw” value in the data set on FCA-rats [2] (dose range 0.002-0.01 mg/kg, FIG. 66) is “dose-related increase in the antinociceptive potency”. For the same compound, the “antinociceptive response, ipsilateral hindpaw, on further increases in dose” value in the data set with FCA-rats [2] (doses above 0.01 mg/kg) is on record as “decreased rather than an increased antinociceptive response”. In addition, the “dose-response of antinociceptive effect (AUC versus dose)” value in the data set with FCA-rats [2] is “distinct increase and then plateau”.

Regarding `C[S+](C)[O-]` [DMSO control, dimethyl sulfoxide], the “reduction of pain response by DMSO” value with Male Quackenbush mice (high dose (5%) DMSO) turned out to be 57%.

On to `CC1(C)CC[C@]2(C(=O)O[C@@H]3O[C@H](CO)[C@@H](O)[C@H](O)[C@H]3O)CC[C@]3(C)C(=CC[C@@H]4[C@@]5(C)CC[C@H](O[C@@H]6O[C@H](CO)[C@@H](O)[C@H](O)[C@H]6O)[C@@](C)(C(=O)O)[C@@H]5CC[C@]43C)[C@@H]2C1` [Dianoside A], for which the “inhibition of acetic acid induced writhing” value in data set [3] is given as “significantly inhibit”.

Take `CC1(C)CC[C@]2(C(=O)O[C@@H]3O[C@H](CO[C@@H]4O[C@H](CO)[C@@H](O)[C@H](O)[C@H]4O)[C@@H](O)[C@H](O[C@@H]4O[C@H](CO)[C@@H](O)[C@H](O)[C@H]4O)[C@H]3O)CC[C@]3(C)C(=CC[C@@H]4[C@@]5(C)CC[C@H](O[C@@H]6O[C@H](CO)[C@@H](O)[C@H](O)[C@H]6O)[C@@](C)(C(=O)O)[C@@H]5CC[C@]43C)[C@@H]2C1` [Dianoside B]: the “inhibition of acetic acid induced writhing” value in data set [3] is “significantly inhibit”.

For `CC(=O)Oc1ccccc1C(=O)O` [aspirin], in data set [3], the median effective dose (ED50) is recorded as 125 mg/kg. Also, the “inhibition of acetic acid induced writhing” value with mice [4] is 80%. For the same compound, the “analgesia in both phases of the formalin test” value with mice [5] was “analgesic in a dose dependent manner in both phases”. Moreover, the “inhibition of p-phenylquinone induced writhing” value with mice [6] was 85%.

For `COc1ccc2c3c1O[C@H]1[C@@H](O)C=C[C@H]4[C@@H](C2)N(C)CC[C@@]341` [codeine], the “response in both early and late phases” value with mice [5] is recorded as “can be reduced”.

As for `C[C@]12CCC(=O)C=C1CC[C@@H]1[C@@H]2[C@@H](O)C[C@@]2(C)[C@H]1CC[C@]2(O)C(=O)CO` [hydrocortisone], the “effect on late phase” value in the data set on mice [5] is on record as “affected”.

For the compound `COc1ccc2c(c1)c(CC(=O)O)c(C)n2C(=O)c1ccc(Cl)cc1` [indomethacin], in the data set with mice [5], the “effect on late phase” value is on record as “affected”.

`CN1CC[C@]23c4c5ccc(O)c4O[C@H]2[C@@H](O)C=C[C@H]3[C@H]1C5` [morphine]: the ED50 in the data set with Male Quackenbush mice (Mus musculus, ip, read-out: ED50 (morphine dose response curve, pain inhibition)) is 4.8 mg/kg. Besides, the analgesia induced result with mice [5] (at 6 mg/kg [64]) is reported as “almost complete analgesia”. Besides, the “response in both early and late phases” value with mice [5] is “can be reduced”. Besides, the “ED50, entire experimental period” value in the data set on mice [5] (subcutaneous, entire experimental period [63]) is listed as 4.8 mg/kg.

With `COc1ccc2cc([C@H](C)C(=O)O)ccc2c1` [naproxen], the “effect on late phase” value in the data set with mice [5] is on record as “affected”.

For the compound `CN1CCOC(c2ccccc2)c2ccccc2C1` (centres unmarked) [nefopam], in the data set on mice [5], the “response in both early and late phases” value was “can be reduced”.

Regarding `Cc1ccccc1C(OCCN(C)C)c1ccccc1` (centres unmarked) [orphendarine], in the data set with mice [5], the “response in both early and late phases” value was “can be reduced”.

Take `CC(=O)Nc1ccc(O)cc1` [paracetamol]: the “analgesia in both phases of the formalin test” value in the data set on mice [5] is listed as “analgesic in a dose dependent manner in both phases”.

In the case of barbatoside A, in data set [3], the ED50 is listed as 95 mg/kg.
